IC50 data for 20 compounds are collected here from patent US9931327B2, “Derivatives of 1-phenyl-2-pyridinyl alkyl alcohols as phosphodiesterase inhibitors” (Chiesi Farmaceutici S.p.A., priority 2011, dated 2018).

As a reminder, the IC50 is the concentration that gives 50% inhibition.

In the first experiment the test system is LPS-induced TNF-α release in peripheral blood mononuclear cells (PBMCs). The experiment is described as follows: In vitro determination of PDE4 inhibitory activity in the PBMCs assay (LPS-induced TNF-α release). It counts as cell-based, human. The note with it: PBMC; human PBMCs, LPS 3 ng/ml, 18 hours, TNF-α by ELISA; read-out: PDE4 inhibition (IC50, 50% inhibition of LPS-induced TNF-α release). In a few lines: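 Cryopreserved human PBMCs (10^5 cells/well) pre-incubated 30 min with compound (10^−12 to 10^−6 M or 10^−3 to 10^−7 M), then stimulated with LPS 3 ng/ml for 18 h at 37 °C. TNF-α in medium by ELISA; IC50 as mean ± 95% confidence limits.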
`CN(C)C(=O)c1cccc(S(=O)(=O)N2CC(C(=O)O[C@@H](Cc3c(Cl)c[n+]([O-])cc3Cl)c3ccc(OC(F)F)c(OCC4CC4)c3)C2)c1` [Compound 281, (S)-3,5-dichloro-4-(2-(3-(cyclopropylmethoxy)-4-(difluoromethoxy)phenyl)-2-(1-(3-(dimethylcarbamoyl)phenylsulfonyl)azetidine-3-carbonyloxy)ethyl)pyridine 1-oxide]: the IC50 lay within 0.1 to 1 nM.

With `O=C(O[C@@H](Cc1c(Cl)c[n+]([O-])cc1Cl)c1ccc(OC(F)F)c(OCC2CC2)c1)C1SCCN1S(=O)(=O)C1CCCCC1` (stereo partly drawn) [Compound 71, 3,5-dichloro-4-((2S)-2-(3-(cyclohexylsulfonyl)thiazolidine-2-carbonyloxy)-2-(3-(cyclopropylmethoxy)-4-(difluoromethoxy)phenyl)ethyl)pyridine 1-oxide], the IC50 lay in the range of 1 to 10 nM.

For the compound `CN(C)S(=O)(=O)c1cccc(S(=O)(=O)N2CCS[C@H]2C(=O)O[C@@H](Cc2c(Cl)c[n+]([O-])cc2Cl)c2ccc(OC(F)F)c(OCC3CC3)c2)c1` [Compound 97, 3,5-dichloro-4-((S)-2-(3-(cyclopropylmethoxy)-4-(difluoromethoxy)phenyl)-2-((S)-3-(3-(N,N-dimethylsulfamoyl)phenylsulfonyl)thiazolidine-2-carbonyloxy)ethyl)pyridine 1-oxide], the IC50 is below 0.1 nM.

Regarding `CN1CCOc2ccc(S(=O)(=O)N3CCS[C@H]3C(=O)O[C@@H](Cc3c(Cl)c[n+]([O-])cc3Cl)c3ccc(OC(F)F)c(OCC4CC4)c3)cc21` [Compound 108, 3,5-dichloro-4-((S)-2-(3-(cyclopropylmethoxy)-4-(difluoromethoxy)phenyl)-2-((S)-3-(4-methyl-3,4-dihydro-2H-benzo[b][1,4]oxazin-6-ylsulfonyl)thiazolidine-2-carbonyloxy)ethyl)pyridine 1-oxide], the IC50 is 0.1 to 1 nM.

`O=C(O[C@@H](Cc1c(Cl)c[n+]([O-])cc1Cl)c1ccc(OC(F)F)c(OCC2CC2)c1)C1SCCN1S(=O)(=O)c1ccccc1` (stereo partly drawn) [Compound 57, 3,5-dichloro-4-((2S)-2-(3-(cyclopropylmethoxy)-4-(difluoromethoxy)phenyl)-2-(3-(phenylsulfonyl)thiazolidine-2-carbonyloxy)ethyl)pyridine 1-oxide]: the 50% inhibitory concentration (IC50) fell in the range of 0.1 to 1 nM.

As for `O=C(O[C@@H](Cc1c(Cl)c[n+]([O-])cc1Cl)c1ccc(OC(F)F)c(OCC2CC2)c1)[C@@H]1SCCN1C(=O)c1cccc(-c2cnco2)c1` [Compound 41, 3,5-dichloro-4-((S)-2-(3-(cyclopropylmethoxy)-4-(difluoromethoxy)phenyl)-2-((S)-3-(3-(oxazol-5-yl)benzoyl)thiazolidine-2-carbonyloxy)ethyl)pyridine 1-oxide], the IC50 lay in the range of 0.1 to 1 nM.

As to `NC(=O)Nc1cccc(S(=O)(=O)N2CCS[C@H]2C(=O)O[C@@H](Cc2c(Cl)c[n+]([O-])cc2Cl)c2ccc(OC(F)F)c(OCC3CC3)c2)c1` [Compound 269, 3,5-dichloro-4-((S)-2-(3-(cyclopropylmethoxy)-4-(difluoromethoxy)phenyl)-2-((S)-3-(3-ureidophenylsulfonyl)thiazolidine-2-carbonyloxy)ethyl)pyridine 1-oxide], the half-maximal inhibitory concentration (IC50) is below 0.1 nM.

`Cc1noc2ncc(S(=O)(=O)N3CSC[C@H]3C(=O)O[C@@H](Cc3c(Cl)c[n+]([O-])cc3Cl)c3ccc(OC(F)F)c(OCC4CC4)c3)cc12` [Compound 253, 3,5-dichloro-4-((S)-2-(3-(cyclopropylmethoxy)-4-(difluoromethoxy)phenyl)-2-((R)-3-(3-methylisoxazolo[5,4-b]pyridin-5-ylsulfonyl)thiazolidine-4-carbonyloxy)ethyl)pyridine 1-oxide]: the half-inhibitory concentration (IC50) lay within 0.1 to 1 nM.

With `CNS(=O)(=O)c1ccc(S(=O)(=O)N2CCSCC2C(=O)O[C@@H](Cc2c(Cl)c[n+]([O-])cc2Cl)c2ccc(OC(F)F)c(OCC3CC3)c2)cc1` (stereo partly drawn) [Compound 81, 3,5-dichloro-4-((2S)-2-(3-(cyclopropylmethoxy)-4-(difluoromethoxy)phenyl)-2-(4-(4-(N-methylsulfamoyl)phenylsulfonyl)thiomorpholine-3-carbonyloxy)ethyl)pyridine 1-oxide], the IC50 is 0.1 to 1 nM.

Regarding `O=C(O[C@@H](Cc1c(Cl)c[n+]([O-])cc1Cl)c1ccc(OC(F)F)c(OCC2CC2)c1)[C@@H]1SCCN1S(=O)(=O)CCN1CCOCC1` [Compound 287, 3,5-dichloro-4-((S)-2-(3-(cyclopropylmethoxy)-4-(difluoromethoxy)phenyl)-2-((S)-3-(2-morpholinoethylsulfonyl)thiazolidine-2-carbonyloxy)ethyl)pyridine 1-oxide], the concentration for half-maximal inhibition (IC50) was below 0.1 nM.

In the case of `O=C(O[C@@H](Cc1c(Cl)c[n+]([O-])cc1Cl)c1ccc(OC(F)F)c(OCC2CC2)c1)[C@@H]1CCCCN1S(=O)(=O)c1ccc(N2CCOCC2)nc1` [Compound 111, 3,5-dichloro-4-((S)-2-(3-(cyclopropylmethoxy)-4-(difluoromethoxy)phenyl)-2-((S)-1-(6-morpholinopyridin-3-ylsulfonyl)piperidine-2-carbonyloxy)ethyl)pyridine 1-oxide], the IC50 is 0.1 to 1 nM.

For `Cc1ccc(S(=O)(=O)N2CCSC2C(=O)O[C@@H](Cc2c(Cl)c[n+]([O-])cc2Cl)c2ccc(OC(F)F)c(OCC3CC3)c2)c(C)c1` (stereo partly drawn) [Compound 61, 3,5-dichloro-4-((2S)-2-(3-(cyclopropylmethoxy)-4-(difluoromethoxy)phenyl)-2-(3-(2,4-dimethylphenylsulfonyl)thiazolidine-2-carbonyloxy)ethyl)pyridine 1-oxide], the IC50 lay within 0.1 to 1 nM.

Take `O=C(O[C@@H](Cc1c(Cl)c[n+]([O-])cc1Cl)c1ccc(OC(F)F)c(OCC2CC2)c1)[C@@H]1SCCN1S(=O)(=O)c1ccccc1` [Compound 89, 3,5-dichloro-4-((S)-2-(3-(cyclopropylmethoxy)-4-(difluoromethoxy)phenyl)-2-((S)-3-(phenylsulfonyl)thiazolidine-2-carbonyloxy)ethyl)pyridine 1-oxide]: the IC50 lay within 0.1 to 1 nM.

Consider `CN(C)C(=O)c1cccc(S(=O)(=O)N2CCC[C@@H]2C(=O)O[C@@H](Cc2c(Cl)c[n+]([O-])cc2Cl)c2ccc(OC(F)F)c(OCC3CC3)c2)c1` [Compound 55, 3,5-dichloro-4-((S)-2-(3-(cyclopropylmethoxy)-4-(difluoromethoxy)phenyl)-2-((R)-1-(3-(dimethylcarbamoyl)phenylsulfonyl)pyrrolidine-2-carbonyloxy)ethyl)pyridine 1-oxide], for which the IC50 is 0.1 to 1 nM.

With `CNS(=O)(=O)c1ccc(S(=O)(=O)N2CCS[C@H]2C(=O)O[C@@H](Cc2c(Cl)c[n+]([O-])cc2Cl)c2ccc(OC(F)F)c(OCC3CC3)c2)cc1` [Compound 94, 3,5-dichloro-4-((S)-2-(3-(cyclopropylmethoxy)-4-(difluoromethoxy)phenyl)-2-((S)-3-(4-(N-methylsulfamoyl)phenylsulfonyl)thiazolidine-2-carbonyloxy)ethyl)pyridine 1-oxide], the IC50 was below 0.1 nM.

Consider `Nc1ccc(S(=O)(=O)N2CCSC2C(=O)O[C@@H](Cc2c(Cl)c[n+]([O-])cc2Cl)c2ccc(OC(F)F)c(OCC3CC3)c2)cc1` (stereo partly drawn) [Compound 135, 4-((2S)-2-(3-(4-aminophenylsulfonyl)thiazolidine-2-carbonyloxy)-2-(3-(cyclopropylmethoxy)-4-(difluoromethoxy)phenyl)ethyl)-3,5-dichloropyridine 1-oxide], for which the IC50 is 0.1 to 1 nM.

Consider `COc1ccc(S(=O)(=O)N2CCSC2C(=O)O[C@@H](Cc2c(Cl)c[n+]([O-])cc2Cl)c2ccc(OC(F)F)c(OCC3CC3)c2)cc1C(=O)N(C)C` (stereo partly drawn) [Compound 123, 3,5-dichloro-4-((2S)-2-(3-(cyclopropylmethoxy)-4-(difluoromethoxy)phenyl)-2-(3-(3-(dimethylcarbamoyl)-4-methoxyphenylsulfonyl)thiazolidine-2-carbonyloxy)ethyl)pyridine 1-oxide], for which the IC50 was below 0.1 nM.

The experiment is the same for the next values; noted with them: PBMC; human PBMCs, LPS 3 ng/ml, 18 hours; compounds of formula (II); read-out: PDE4 inhibition (IC50, 50% inhibition of LPS-induced TNF-α release).
For the compound `O=C(O[C@@H](Cc1c(Cl)c[n+]([O-])cc1Cl)c1ccc(OC(F)F)c(OCC2CC2)c1)[C@@H]1CSCN1` [Compound 11], the IC50 was in the range of 0.1 to 1 nM.

`O=C(OC(Cc1c(Cl)c[n+]([O-])cc1Cl)c1ccc(OC(F)F)c(OCC2CC2)c1)C1CNCCO1` (centres unmarked) [Compound 8]: the half-inhibitory concentration (IC50) was in the range of 1 to 10 nM.

Consider `O=C(O[C@@H](Cc1c(Cl)c[n+]([O-])cc1Cl)c1ccc(OC(F)F)c(OCC2CC2)c1)[C@H]1CCCCN1` [Compound 9], for which the IC50 is 1 to 10 nM.
